Data taken from patent US4044043A, “Derivatives of 9-oxo-13-trans-prostenoic acid esters” (American Cyanamid Company, priority 1975, dated 1977).
In brackets after ≈: the same amount, converted by molar mass. Read-outs that look alike come from different tables or passages of the source.

Tests used:
diastolic blood pressure = assay: Prostaglandin-like hypotensive activity in anesthetized rats (minimal dose for about 10 mm. decrease in diastolic blood pressure); type: in vivo, Male Wistar strain rats; details: Rattus norvegicus; intravenous; decrease of about 10 mm. in diastolic blood pressure
Outline: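 Male Wistar rats (~250 g), pentobarbital 30 mg./kg. i.v. and hexamethonium 2 mg./kg. i.v., iliac artery cannulated for blood pressure. Compounds in saline-Tween 80 given i.v. at 0.1–10.0 mg./kg.; value is the minimal dose giving ~10 mm. drop in diastolic pressure.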

[1] = test system: Microsporum gypseum ATCC 14683; assay: agar-dilution streak-plate antimicrobial assay; type: cell-based; details: Nannizzia gypsea, ATCC14683, read-out: Minimal inhibitory conc. (2)
Outline: (§1)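 Test solutions at 2.5 mg/ml were two-fold serially diluted, and 1 ml of each was mixed into 9 ml warm nutrient agar, with bacterial and fungal media kept separate. Overnight broth cultures or saline spore suspensions were streaked by loop. MIC was the lowest concentration (µg/ml) giving complete visible growth inhibition.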

[2] = test system: Mycobacterium smegmatis ATCC 606; assay: agar-dilution streak-plate antimicrobial assay; type: cell-based; details: Mycolicibacterium smegmatis, ATCC606, read-out: Minimal inhibitory conc. (6)
Outline: as §1

[3] = test system: Trichophyton mentagrophytes E 11; assay: agar-dilution streak-plate antimicrobial assay; type: cell-based; details: E11, read-out: Minimal inhibitory conc. (4)
Outline: as §1

[4] = test system: Trichophyton tonsurans NIH 662; assay: agar-dilution streak-plate antimicrobial assay; type: cell-based; details: NIH662, read-out: Minimal inhibitory conc. (3)
Outline: as §1

[5] = test system: bronchospasms elicited by 5-hydroxytryptamine; assay: Bronchodilator Activity (Konzett Assay) against 5-hydroxytryptamine; type: in vivo, guinea pigs; details: Cavia porcellus; three logarithmic cumulative intravenous doses
Method: (§2) Bronchodilator activity was determined in guinea pigs against bronchospasms elicited by intravenous injections of 5-hydroxytryptamine, histamine or acetylcholine by the Konzett procedure. [See J. Lulling, P. Lievens, F. El Sayed and J. Prignot, Arzeneimittel-Forschung, 18, 995 (1968)]. In Table IIIC which follows bronchodilator activity for representative compounds of this invention against one or more of the three spasmogenic agents is expressed as an ED50 determined from the results obtained with three logarithmic cumulative intravenous doses.

[6] = test system: bronchospasms elicited by histamine; assay: Bronchodilator Activity (Konzett Assay) against histamine; type: in vivo, guinea pigs; details: Cavia porcellus; three logarithmic cumulative intravenous doses
Method: as §2

[7] = test system: bronchospasms elicited by acetylcholine; assay: Bronchodilator Activity (Konzett Assay) against acetylcholine; type: in vivo, guinea pigs; details: Cavia porcellus; three logarithmic cumulative intravenous doses
Method: as §2

[8] = test system: dl-PGE1-induced contraction of gerbil colon; assay: Inhibition of dl-PGE1-Induced Contraction of Gerbil Colon (prostaglandin antagonist action); type: cell-based, gerbils (Meriones unguiculatus); details: Meriones unguiculatus, 1 min; sub-maximal challenge, 20 ng./ml. dl-PGE1; 50% inhibition of maximum response; read-out: ID50 vs. 20 ng. of PGE1/ml.
Outline: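 Ascending colon from male gerbils, held in De Jalon's solution at 37 °C under 95% O2/5% CO2 with 0.5 g resting tension, contraction recorded isometrically. 1 min compound exposure, then 1 min dl-PGE1 at 200 ng/ml (maximal) or 20 ng/ml (sub-maximal). Approximate ID50 taken from a concentration series against the preceding agonist-only cycle.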

gastric acid secretion [9] = assay: Inhibition of basal Gastric Acid Secretion (Acute Gastric Fistula Rat); type: in vivo, Female Sprague-Dawley rats; details: 10 mg./kg. intraduodenal
Method: Inhibition of basal gastric acid secretion was determined in the acute gastric fistula rat as follows. Female Sprague-Dawley rats (Charles River Laboratories) weighing 140-160 grams are fasted in individual cages for 18-24 hours. The rats are then lightly anesthetized with ether and their front teeth extracted to avoid destruction of the plastic cannula. A midline incision is then made and the stomach and duodenum exposed. A flanged polyvinyl tube is inserted into the fundic portion of the stomach and secured with a purse string suture line using 4-0 Mersilene. The rat is then dosed by injection of the compound into the duodenum (1.0 ml. per 100 gram body weight). After dosing, the abdominal wall and skin are closed using metal wound clips. The rat is replaced in a cage containing a longitudinal slit to allow the polyvinyl tube to hang freely. An 8 ml. plastic collecting tube is attached to the flanged cannula and hangs freely below the cage. The first 30 minute sample is discarded designating this time as zero. The collecting tube is attached again and samples removed at the end of 60 and 120 minutes. Those samples are referred to as "A" and "B" in the table. The hourly samples are then transferred to a 15 ml. centrifuge tube and centrifuged for 5-10 minutes. Total and sediment volume are then recorded with the supernatant volume being used as volume of secretion. A 1 ml. or less aliquot is then removed and placed in a 50 ml. beaker containing 10 ml. of distilled water. This sample is then titrated using 0.01N NaOH to pH 7.0 using a Beckman zeromatic pH meter. Volume, titratable acidity (meq/L) and total acid output (μ eq/hour) are recorded. Percent inhibition is determined by comparison with the appropriate control. Groups of three rats were used. All compounds are administered in vehicle (0.5% methocel, 0.4% Tween 80, saline) at a constant volume of 1 ml./100 gram rat. Samples were sonicated with care to prevent overheating.

[10] = test system: Streptococcus pyogenes C 203; assay: agar-dilution streak-plate antimicrobial assay; type: cell-based; details: C203, read-out: Minimal inhibitory conc. (8)
Outline: as §1

gastric acid secretion [11] = assay: Inhibition of Gastric Acid Secretion (Pylorous-Ligated Rat), Shay rat procedure; type: in vivo, rats (male, CFE strain); details: read-out: % Inhibition of Control Gastric Acid Secretion; for inhibition in vivo at 50 mg/kg: 50 mg./kg. intraduodenal
Outline: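 Male CFE rats were fasted 48 h, then pylorus-ligated under ether. Gastric contents were titrated with 0.02N or 0.04N NaOH to pH 8.4 for acid output, and ≥20% inhibition counted as active.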

[12] = 2 h, B: 120 minute collection, read-out: % Inhibition Total Acid Output
[13] = 2 h, B: 120 minute collection, read-out: % Inhibition Total Acidity
[14] = 1 h, A: 60 minute collection, read-out: % Inhibition Total Acid Output
[15] = 1 h, A: 60 minute collection, read-out: % Inhibition Total Acidity

SMILES	minimal effective dose (diastolic blood pressure) [mg/kg]	MIC [2] [µg/mL]	MIC [3] [µg/mL]	MIC [4] [µg/mL]	IC50 [8] [µg/mL]	inhibition in vivo at 10 mg/kg (gastric acid secretion [9]; [12]) [%]	inhibition in vivo at 10 mg/kg (gastric acid secretion [9]; [13]) [%]	other results
CCSCCC/C=C/[C@@H]1CCC(=O)[C@H]1CCCCCCC(=O)O (relative stereo) [9-oxo-18-thia-13-trans-prostenoic acid]	0.2	250 (≈ 734 µM)	125 (≈ 367 µM)	125 (≈ 367 µM)	1 (≈ 2.94 µM)			MIC [1]: 250 µg/mL (≈ 734 µM); ED50 [5]: 1.99 mg/kg; ED50 [6]: 1.38 mg/kg; ED50 [7]: > 10 mg/kg
CCOCCC/C=C/[C@@H]1CCC(=O)[C@H]1CCCCCCC(=O)O (relative stereo) [18-oxa-9-oxo-13-trans-prostenoic acid]	2		250 (≈ 771 µM)	250 (≈ 771 µM)	15 to 25 (≈ 46.2 to 77.1 µM)	56	43	ED50 [5]: 1.92 mg/kg; ED50 [6]: 1.5 mg/kg; ED50 [7]: > 10 mg/kg
CCCCCCCCCC/C=C/[C@H]1CCC(=O)[C@@H]1CCCCCCC(=O)O (relative stereo) [20-butyl-9-oxo-13-trans-prostenoic acid]		10 (≈ 26.4 µM)		250 (≈ 660 µM)				MIC [10]: 10 µg/mL (≈ 26.4 µM); ED50 [5]: > 10 mg/kg; ED50 [6]: 2.4 mg/kg; ED50 [7]: > 10 mg/kg
O=C(O)CCCC/C=C/[C@@H]1CCC(=O)[C@H]1CCCCCCC(=O)O (relative stereo) [20-carboxy-9-oxo-18,19-dinor-13-trans-prostenoic acid]	8				35 (≈ 103 µM)	25	30	
O=C(O)CCCCCC[C@H]1C(=O)CC[C@@H]1/C=C/CCCCCCS (relative stereo) [20-mercapto-9-oxo-13-trans-prostenoic acid]		125 (≈ 353 µM)	250 (≈ 705 µM)	250 (≈ 705 µM)				MIC [1]: 125 µg/mL (≈ 353 µM); MIC [10]: 6 µg/mL (≈ 16.9 µM)
CCCCCC/C=C/[C@@H]1CCC(=O)[C@H]1CCCCC(C)(C)CC(=O)OCC (relative stereo) [ethyl 9-oxo-3,3-dimethyl-13-trans-prostenoate]						59	18	
CCCCCC/C=C/[C@H]1CCC(=O)[C@@H]1CC(=O)OCC (relative stereo) [ethyl 9-oxo-3,4,5,6,7-pentanor-13-trans-prostenoate]	8	125 (≈ 446 µM)	125 (≈ 446 µM)	250 (≈ 892 µM)				MIC [10]: 125 µg/mL (≈ 446 µM)
CCCCCC/C=C/[C@@H]1CCC(=O)[C@H]1CCCCOCC(=O)OCC (relative stereo) [ethyl 9-oxo-3-oxa-13-trans-prostenoate, ethyl 3-oxa-9-oxo-13-trans-prostenoate]								inhibition in vivo at 50 mg/kg (gastric acid secretion [11]): 48%; inhibition in vivo at 100 mg/kg (gastric acid secretion [11]; 100 mg./kg. intraduodenal): 89%; inhibition in vivo at 109 mg/kg (gastric acid secretion [11]; 109 mg./kg., 1 hr. pre-ligation): 59%; inhibition in vivo at 10 mg/kg (gastric acid secretion [9]; [14]): 40%; inhibition in vivo at 10 mg/kg (gastric acid secretion [9]; [15]): 37%
CCCCCC/C=C/[C@H]1CCC(=NOC)[C@@H]1CCCCCCC(=O)OCC (relative stereo) [ethyl 9-oxo-13-trans-prostenoate 9-methoxime]						66	45	
CCC/C=C/[C@H]1CCC(=O)[C@@H]1CCCCCCC(=O)OCC (relative stereo) [ethyl 9-oxo-18,19,20-trinor-13-trans-prostenoate]		250 (≈ 810 µM)	250 (≈ 810 µM)					inhibition in vivo at 100 mg/kg (gastric acid secretion [11]; 100 mg./kg. intraduodenal): 94%; inhibition in vivo at 100 mg/kg (gastric acid secretion [11]; 100 mg./kg., 1 hr. pre-ligation): 73%; inhibition in vivo at 8 mg/kg (gastric acid secretion [11]; sc, 8 mg./kg. subcutaneous): 40%
CCOC(=O)CCCCCC[C@H]1C(=O)CC[C@@H]1/C=C/CCCCl (relative stereo) [ethyl 20-chloro-9-oxo-17,18,19-trinor-13-trans-prostenoate]	0.2 to 1	250 (≈ 729 µM)	250 (≈ 729 µM)					inhibition in vivo at 100 mg/kg (gastric acid secretion [11]; 100 mg./kg. intraduodenal): 61%
CCOC(=O)CCCCCC[C@H]1C(=O)CC[C@@H]1/C=C/CCCI (relative stereo) [ethyl 20-iodo-9-oxo-17,18,19-trinor-13-trans-prostenoate]		62 (≈ 143 µM)	250 (≈ 576 µM)	250 (≈ 576 µM)				
CCCCCC/C=C/[C@@H]1CCC(=O)[C@H]1CCCCCCC(=O)OCCCC (relative stereo) [n-butyl 9-oxo-13-trans-prostenoate]	2	250 (≈ 660 µM)						MIC [10]: 250 µg/mL (≈ 660 µM); inhibition in vivo at 50 mg/kg (gastric acid secretion [11]): 20%
CCCCCCC=CC1CCC(C)(O)C1CCCCCCC(=O)O (stereo not drawn) [9-Hydroxy-9-methyl-13-trans-prostenoic acid]					2 to 5 (≈ 5.91 to 14.8 µM)	31	16	ED50 [5]: 0.756 mg/kg; ED50 [6]: 1.18 mg/kg; ED50 [7]: 4.32 mg/kg
CCCCCCC=CC1CCC(=O)C1CCCCCC(C(=O)O)c1ccccc1 (stereo not drawn) [9-oxo-2-phenyl-13-trans-prostenoic acid]					5 to 7 (≈ 12.5 to 17.6 µM)	44	26	
CCCCCC/C=C/[C@H]1CCC(O)[C@@H]1CCCCC(=O)OCC (stereo partly drawn) [ethyl 9-hydroxy-6,7-dinor-13-trans-prostenoate]		6 (≈ 18.5 µM)						MIC [10]: 13 µg/mL (≈ 40.1 µM)
CCCCCC/C=C/[C@H]1CCC(=O)[C@@H]1CCCCCC(CC)C(=O)OCC (stereo partly drawn) [ethyl 9-oxo-2-ethyl-13-trans-prostenoate, ethyl 2-ethyl-9-oxo-13-trans-prostenoate]					10 to 25 (≈ 26.4 to 66 µM)	48	49	inhibition in vivo at 100 mg/kg (gastric acid secretion [11]; 100 mg./kg. intraduodenal): 42%; inhibition in vivo at 10 mg/kg (gastric acid secretion [9]; [14]): 56%; inhibition in vivo at 10 mg/kg (gastric acid secretion [9]; [15]): 66%
